Columns and labels:
[1] = human, in vivo; cited from earlier work
[2] = target: human phosphodiesterase III (PDE III); conditions: cited from earlier work
[3] = test system: human megakaryocytopoiesis; conditions: cited from earlier work
[4] = test system: erythroid or myelomonocytic differentiation; conditions: stimulated by erythropoietin or granulocyte-macrophage colony-stimulating factor; cited from earlier work
[5] = pharmacokinetics of anagrelide and its metabolite in patients; assay type: in vivo, human; conditions: typical exposures, greater than anagrelide
[6] = test system: human phosphodiesterase III (PDE III); experiment: PDE III inhibition; assay type: biochemical; conditions: more potent than anagrelide

Row | exposure in vivo relative to parent drug [5] | potency as PDE III inhibitor relative to anagrelide [6] | SMILES | first pass effect [1] [%] | typical half-life [1] [h] | IC50 [2] [nM] | IC50 ([3]; in vitro, TPO-induced, read-out: estimated IC50 for inhibition of TPO-induced megakaryocytopoiesis) [nM] | effect on erythroid or myelomonocytic differentiation [4] | potency in inhibition of megakaryocytopoiesis relative to parent drug ([3]; compared with anagrelide)
1 | – | – | O=C1CN2Cc3c(ccc(Cl)c3Cl)N=C2N1 [Anagrelide, 6,7-dichloro-1,5-dihydroimidazo[2,1-b]-quinazolin-2(3H)-one] | > 50 | 1.5 | ~29 | ~26 | does not affect | –
2 | – | – | Cc1[nH]c(=O)c(C#N)cc1-c1ccncc1 [milrinone] | – | – | 170 to 350 | – | – | –
3 | 2-3 fold | over 40 fold | O=C1NC2=Nc3ccc(Cl)c(Cl)c3CN2C1O (stereo not shown) [3-hydroxyanagrelide] | – | 2.5 | – | – | – | no more potent than the parent drug

Reference: patent US20110065714A1, “SUBSTITUTED QUINAZOLINES” (Shire LLC, priority 2008, published 2011)
